In the test the target is T1, LjG10H (geraniol 10-hydroxylase) (Lonicera japonica, UniProt U5NH25).
T1 construct: pET32a, N-terminal TRX/His tag kept (band about 72 kDa), E. coli BL21, Ni column
As to the kind of experiment: HPLC detection of 10-hydroxygeraniol formed by purified recombinant protein. In kind it is biochemical. The conditions noted are these: 2.5 mmol/L geraniol, 1 mmol/L NADPH with glucose-6-phosphate / G6PDH, FAD, FMN, EDTA, DTT, potassium phosphate pH 7.6, 30 °C, 3 h; no P450 reductase mentioned.

T1 sequence (U5NH25 entry or part of it): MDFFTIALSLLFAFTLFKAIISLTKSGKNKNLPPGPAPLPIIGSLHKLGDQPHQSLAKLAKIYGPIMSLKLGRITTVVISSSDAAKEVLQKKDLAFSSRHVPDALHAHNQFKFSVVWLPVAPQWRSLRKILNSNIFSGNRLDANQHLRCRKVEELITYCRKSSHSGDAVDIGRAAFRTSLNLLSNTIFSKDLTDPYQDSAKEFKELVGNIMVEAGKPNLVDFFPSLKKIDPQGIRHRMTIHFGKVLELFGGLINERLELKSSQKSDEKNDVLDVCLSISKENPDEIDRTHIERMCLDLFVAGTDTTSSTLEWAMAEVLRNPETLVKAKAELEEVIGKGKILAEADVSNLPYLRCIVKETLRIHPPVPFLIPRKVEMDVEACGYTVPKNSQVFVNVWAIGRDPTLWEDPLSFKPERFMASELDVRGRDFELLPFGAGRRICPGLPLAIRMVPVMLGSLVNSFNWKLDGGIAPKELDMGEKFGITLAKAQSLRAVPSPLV

As to `CC(C)=CCC/C(C)=C/CO` [geraniol], the “HPLC detection of 10-hydroxygeraniol formed by purified recombinant protein” value is recorded as “LjG10H exhibits catalytic activity in the conversion of geraniol to 10-hydroxygeraniol in vitro”.

(Values after PMC11737341, “Cloning and functional verification of Geraniol-10-Hydroxylase gene in Lonicera japonica” (PeerJ, 2025).)
